Test results taken from patent US20250059171A1 (Hoffmann-La Roche Inc., priority 2021, published 2025).

How the values were obtained:
MERS-CoV 3CLpro = MERS-CoV 3CLpro (Middle East respiratory syndrome-related coronavirus, UniProt K9N7C7); assay: biochemical
SARS-CoV-2 3CLpro = SARS-CoV-2 3CLpro (Severe acute respiratory syndrome coronavirus 2, UniProt P0DTD1); assay: biochemical
HCoV-229E 3CLpro = HCoV-229E 3CLpro (Human coronavirus 229E, UniProt P0C6X1); assay: HCoV-229E 3CLpro inhibition assay (FRET); type: biochemical
HCoV-229E 3CLpro, sequence (P0C6X1 2966-3267): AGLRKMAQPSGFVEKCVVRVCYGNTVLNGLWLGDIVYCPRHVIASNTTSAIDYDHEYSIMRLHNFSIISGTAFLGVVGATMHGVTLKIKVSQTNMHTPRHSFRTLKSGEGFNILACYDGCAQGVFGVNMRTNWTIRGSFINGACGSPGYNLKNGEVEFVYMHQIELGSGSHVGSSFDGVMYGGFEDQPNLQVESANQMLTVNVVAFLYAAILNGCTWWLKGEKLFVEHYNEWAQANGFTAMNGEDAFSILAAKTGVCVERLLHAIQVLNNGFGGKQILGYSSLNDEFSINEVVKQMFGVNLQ

SARS-CoV 3CLpro = SARS-CoV 3CLpro (Severe acute respiratory syndrome coronavirus, UniProt P0C6X7); assay: biochemical

MERS-CoV 3CLpro, sequence (K9N7C7 3248-3553): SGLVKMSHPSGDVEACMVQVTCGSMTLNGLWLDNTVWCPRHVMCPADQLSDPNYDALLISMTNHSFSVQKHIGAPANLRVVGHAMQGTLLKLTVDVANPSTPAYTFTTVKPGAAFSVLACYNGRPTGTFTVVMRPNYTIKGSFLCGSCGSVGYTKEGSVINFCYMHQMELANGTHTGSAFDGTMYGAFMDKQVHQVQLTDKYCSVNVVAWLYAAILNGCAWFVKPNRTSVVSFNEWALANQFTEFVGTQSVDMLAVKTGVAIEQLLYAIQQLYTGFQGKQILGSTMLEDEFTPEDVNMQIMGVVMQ

SMILES	IC50 (MERS-CoV 3CLpro) [nM]	IC50 (SARS-CoV-2 3CLpro) [nM]	IC50 (HCoV-229E 3CLpro) [nM]	IC50 (SARS-CoV 3CLpro) [nM]
CC1(C)[C@@H]2[C@@H](C(=O)NN(C[C@@H]3CCNC3=O)C(=O)[C@H](F)Cl)N(C(=O)[C@H](Cc3ccncc3)NC(=O)C(F)(F)F)C[C@@H]21 [Example 67, N-[(1S)-2-[(1R,2S,5S)-2-[[[(2R)-2-chloro-2-fluoro-acetyl]-[[(3S)-2-oxopyrrolidin-3-yl]methyl]amino]carbamoyl]-6,6-dimethyl-3-azabicyclo[3.1.0]hexan-3-yl]-2-oxo-1-(4-pyridylmethyl)ethyl]-2,2,2-trifluoro-acetamide]	84	10	28	14
CC1([C@H](NC(=O)C(F)(F)F)C(=O)N2C[C@H]3[C@@H]([C@H]2C(=O)NN(C[C@@H]2CCNC2=O)C(=O)[C@H](F)Cl)C3(C)C)CC1 [Example 68, N-[(1S)-2-[(1R,2S,5S)-2-[[[(2R)-2-chloro-2-fluoro-acetyl]-[[(3S)-2-oxopyrrolidin-3-yl]methyl]amino]carbamoyl]-6,6-dimethyl-3-azabicyclo[3.1.0]hexan-3-yl]-1-(1-methylcyclopropyl)-2-oxo-ethyl]-2,2,2-trifluoro-acetamide]	81	18	23	14
CSCC[C@H](NC(=O)C(F)(F)F)C(=O)N1C[C@H]2[C@@H]([C@H]1C(=O)NN(C[C@@H]1CCNC1=O)C(=O)[C@H](F)Cl)C2(C)C [Example 69, N-[(1S)-1-[(1R,2S,5S)-2-[[[(2R)-2-chloro-2-fluoro-acetyl]-[[(3S)-2-oxopyrrolidin-3-yl]methyl]amino]carbamoyl]-6,6-dimethyl-3-azabicyclo[3.1.0]hexane-3-carbonyl]-3-methylsulfanyl-propyl]-2,2,2-trifluoro-acetamide]	249	11	53	28
CC(C)(C)[C@H](NC(=O)C(Cl)Cl)C(=O)N1C[C@@H]2CCC[C@@H]2[C@H]1C(=O)NN(C[C@@H]1CCNC1=O)C(=O)[C@H](F)Cl [Example 70, N-[(1S)-1-[(3S,3aS,6aR)-3-[[[(2R)-2-chloro-2-fluoro-acetyl]-[[(3S)-2-oxopyrrolidin-3-yl]methyl]amino]carbamoyl]-3,3a,4,5,6,6a-hexahydro-1H-cyclopenta[c]pyrrole-2-carbonyl]-2,2-dimethyl-propyl]-2,2-dichloro-acetamide]	101	7	30	16
CC(C)(C)[C@H](NC(=O)C(F)(F)C(F)(F)F)C(=O)N1C[C@@H]2CCC[C@@H]2[C@H]1C(=O)NN(C[C@@H]1CCNC1=O)C(=O)[C@H](F)Cl [Example 71, N-[(1S)-1-[(3S,3aS,6aR)-3-[[[(2R)-2-chloro-2-fluoro-acetyl]-[[(3S)-2-oxopyrrolidin-3-yl]methyl]amino]carbamoyl]-3,3a,4,5,6,6a-hexahydro-1H-cyclopenta[c]pyrrole-2-carbonyl]-2,2-dimethyl-propyl]-2,2,3,3,3-pentafluoro-propanamide]	41	7	19	10
CC[C@H](NC(=O)C(F)(F)F)C(=O)N1C[C@@H]2CCC[C@@H]2[C@H]1C(=O)NN(C[C@@H]1CCNC1=O)C(=O)[C@H](F)Cl [Example 72, N-[(1S)-1-[(3S,3aS,6aR)-3-[[[(2R)-2-chloro-2-fluoro-acetyl]-[[(3S)-2-oxopyrrolidin-3-yl]methyl]amino]carbamoyl]-3,3a,4,5,6,6a-hexahydro-1H-cyclopenta[c]pyrrole-2-carbonyl]propyl]-2,2,2-trifluoro-acetamide]	58	8	23	11
CC[C@@H](C)[C@H](NC(=O)C(F)(F)F)C(=O)N1C[C@@H]2CCC[C@@H]2[C@H]1C(=O)NN(C[C@@H]1CCNC1=O)C(=O)[C@H](F)Cl [Example 73, N-[(1S,2R)-1-[(3S,3aS,6aR)-3-[[[(2R)-2-chloro-2-fluoro-acetyl]-[[(3S)-2-oxopyrrolidin-3-yl]methyl]amino]carbamoyl]-3,3a,4,5,6,6a-hexahydro-1H-cyclopenta[c]pyrrole-2-carbonyl]-2-methyl-butyl]-2,2,2-trifluoro-acetamide]	110	33	40	12
O=C1NCC[C@H]1CN(NC(=O)[C@@H]1[C@H]2CCC[C@H]2CN1C(=O)[C@@H](NC(=O)C(F)(F)F)C1CCC1)C(=O)[C@H](F)Cl [Example 74, N-[(1S)-2-[(3S,3aS,6aR)-3-[[[(2R)-2-chloro-2-fluoro-acetyl]-[[(3S)-2-oxopyrrolidin-3-yl]methyl]amino]carbamoyl]-3,3a,4,5,6,6a-hexahydro-1H-cyclopenta[c]pyrrol-2-yl]-1-cyclobutyl-2-oxo-ethyl]-2,2,2-trifluoro-acetamide]	358	7	117	45
C[C@H](NC(=O)C(F)(F)F)C(=O)N1C[C@@H]2CCC[C@@H]2[C@H]1C(=O)NN(C[C@@H]1CCNC1=O)C(=O)[C@H](F)Cl [Example 75, N-[(1S)-2-[(3S,3aS,6aR)-3-[[[(2R)-2-chloro-2-fluoro-acetyl]-[[(3S)-2-oxopyrrolidin-3-yl]methyl]amino]carbamoyl]-3,3a,4,5,6,6a-hexahydro-1H-cyclopenta[c]pyrrol-2-yl]-1-methyl-2-oxo-ethyl]-2,2,2-trifluoro-acetamide]	83	12	33	12
CC[C@@H](C)[C@H](NC(=O)C(C)(F)F)C(=O)N1C[C@@H]2CCC[C@@H]2[C@H]1C(=O)NN(C[C@@H]1CCNC1=O)C(=O)[C@H](F)Cl [Example 76, N-[(1S,2R)-1-[(3S,3aS,6aR)-3-[[[(2R)-2-chloro-2-fluoro-acetyl]-[[(3S)-2-oxopyrrolidin-3-yl]methyl]amino]carbamoyl]-3,3a,4,5,6,6a-hexahydro-1H-cyclopenta[c]pyrrole-2-carbonyl]-2-methyl-butyl]-2,2-difluoro-propanamide]	194	8	88	15
CCC(CC)[C@H](NC(=O)C(F)(F)F)C(=O)N1C[C@@H]2CCC[C@@H]2[C@H]1C(=O)NN(C[C@@H]1CCNC1=O)C(=O)[C@H](F)Cl [Example 77, N-[(1S)-1-[(3S,3aS,6aR)-3-[[[(2R)-2-chloro-2-fluoro-acetyl]-[[(3S)-2-oxopyrrolidin-3-yl]methyl]amino]carbamoyl]-3,3a,4,5,6,6a-hexahydro-1H-cyclopenta[c]pyrrole-2-carbonyl]-2-ethyl-butyl]-2,2,2-trifluoro-acetamide]	69	7	28	12
CCC[C@H](NC(=O)C(F)(F)F)C(=O)N1C[C@@H]2CCC[C@@H]2[C@H]1C(=O)NN(C[C@@H]1CCNC1=O)C(=O)[C@H](F)Cl [Example 78, N-[(1S)-1-[(3S,3aS,6aR)-3-[[[(2R)-2-chloro-2-fluoro-acetyl]-[[(3S)-2-oxopyrrolidin-3-yl]methyl]amino]carbamoyl]-3,3a,4,5,6,6a-hexahydro-1H-cyclopenta[c]pyrrole-2-carbonyl]butyl]-2,2,2-trifluoro-acetamide]	57	9	23	10
